pIC50: −log10 of the molar value.
Legend:
184B5 parental cell line = experiment: BMN673 treatment of CHD1L knock-in study, parental line; type: cell-based; details: Homo sapiens, low CHD1L protein expression
Experimental: (§1) This example illustrates the creation of cell lines overexpressing CHD1L protein by vector knock-in. Briefly, breast cancer cell line 184B5 cells were transduced with lentivirus containing CHD1L cDNA. After transduction, clones transfected with CHD1L were selected with 500 μg/mL G418 for 1 week. Expression of CHD1L protein in the 24 knock-in clones and the parental cell line 184B5 was detected by Western blot. […] This example illustrates that the knock-in of CHD1L protein sensitized breast cancer cells to BMN673 treatment. Briefly, 184B5 knock-in clones 7 and 14 (i.e., cells with high CHD1L protein expression) were treated with BMN673 and compared with the 184B5 parental cell line (i.e., cells with low CHD1L protein expression) treated with BMN673, with respect to percent death from baseline (FIG. 5, top panel) and percent growth inhibition (FIG. 5, bottom panel).

[1] = tested on: 184B5 CHD1L knock-in clone 14; experiment: BMN673 treatment of CHD1L knock-in clone; type: cell-based; details: Homo sapiens; 184B5 knock-in clone 14, high CHD1L protein expression
Experimental: as §1

[2] = tested on: 184B5 CHD1L knock-in clone 7; experiment: BMN673 treatment of CHD1L knock-in clone; type: cell-based; details: Homo sapiens; 184B5 knock-in clone 7, high CHD1L protein expression
Experimental: as §1

MDA-MB-436 = experiment: BMN673 sensitivity (cell growth) in cancer cell line; type: cell-based, human; details: MDA-MB-436, Breast
Experimental: (§2) This example illustrates that CHD1L amplification correlated with overexpression of CHD1L protein. […] CHD1L protein expression in the NSCLC and breast cancer cell lines was assayed by Western blot with antibodies against CHD1L. […] HCC1937 was used as a negative control for CHD1L protein expression, as the cell line carries a loss of heterozygosity (LOH) of CHD1L. Each of these cell lines was also assayed for sensitivity or resistance to inhibition of PARP by BMN673. Briefly, each cell line was cultured and exposed to a range of concentrations of BMN673 to determine an IC50 value of inhibitory effect on PARP (as evidenced by cell growth) for each cell line (see Table 2).

EMF192A = experiment: as above; type: cell-based, human; details: Breast
Experimental: as §2

H1651 = experiment: as above; type: cell-based, human; details: H1651, Lung
Experimental: as §2

HCC1937 = experiment: as above; type: cell-based, human; details: HCC1937, Breast
Experimental: as §2

CaLu1 = experiment: as above; type: cell-based, human; details: CaLu1, Lung
Experimental: as §2

HCC1187 = experiment: as above; type: cell-based, human; details: HCC1187, Breast
Experimental: as §2

BT-20 = experiment: as above; type: cell-based, human; details: BT-20, Breast
Experimental: as §2

184B5 = experiment: as above; type: cell-based, human; details: 184B5, Breast
Experimental: as §2

BT-474 = experiment: as above; type: cell-based, human; details: BT-474, Breast
Experimental: as §2

H1568 = experiment: as above; type: cell-based, human; details: H1568, Lung
Experimental: as §2

H1838 = experiment: as above; type: cell-based, human; details: H1838, Lung
Experimental: as §2

MCF7 = experiment: as above; type: cell-based, human; details: MCF7, Breast
Experimental: as §2

pIC50 [1]: 7.52
pIC50 [2]: 7.21
pIC50 (MDA-MB-436; Homo sapiens, 1q21 AMP): 9.72
pIC50 (EMF192A; Homo sapiens, 1q21 NC): 6.05
pIC50 (H1651; Homo sapiens, NCI-H1651, 1q21 AMP): 8.20
pIC50 (HCC1937; Homo sapiens, 1q21 LOH): 7.07
pIC50 (CaLu1; Homo sapiens, Calu-1, 1q21 NC): 5.59
pIC50 (HCC1187; Homo sapiens, 1q21 AMP): 8.96
pIC50 (BT-20; Homo sapiens, 1q21 NC): 6.45
pIC50 (184B5; Homo sapiens, 1q21 NC): 5.26
pIC50 (BT-474; Homo sapiens, 1q21 NC): 6.23
pIC50 (H1568; Homo sapiens, NCI-H1568, 1q21 AMP): 7.30
pIC50 (H1838; Homo sapiens, NCI-H1838, 1q21 AMP): 8.92
pIC50 (MCF7; Homo sapiens, 1q21 AMP): 7.03
SMILES: Cn1ncnc1[C@H]1c2n[nH]c(=O)c3cc(F)cc(c23)N[C@@H]1c1ccc(F)cc1 [BMN673]
pIC50 (184B5 parental cell line): ~6.00
Response (MDA-MB-436): sensitive and Sens
Response (EMF192A): resistant and Res
Response (H1651): sensitive and Sens
Response (HCC1937): Int
Response (CaLu1): resistant and Res
Response (HCC1187): sensitive and Sens
Response (BT-20): resistant and Res
Response (184B5): resistant and Res
Response (BT-474): resistant and Res
Response (H1568): Int
Response (H1838): sensitive and Sens
Response (MCF7): sensitive and Int
